Source: US20150337013A1, “NOVEL ANTIBACTERIAL AGENTS FOR THE TREATMENT OF GRAM POSITIVE INFECTIONS” (priority 2008, published 2015)
Read-outs that look alike come from different tables or passages of the source.

Experiments:
[1] = test system: Enterococcus faecalis EFS.201 (ATCC 49452); type: cell-based
Outline: (§1)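 CLSI M7-A7 broth microdilution, modified: MHB + 50 mg/L Ca, 5×10^5 bacteria/well, 2-fold dilutions, DMSO ≤1%, 18-20 h, 37° C, 200 rpm. Growth = visible turbidity or OD600 ≥0.1; MIC = lowest conc. without visible turbidity, μg/mL.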

[2] = test system: Enterococcus faecalis EFS.312, Daptomycin resistant mutant (EFA); type: cell-based; settings: MHBc with 50 mg/L calcium, 18-20 hours at 37° C.
Outline: as §1

[3] = test system: Staphylococcus aureus SAU.399 (ATCC 43300), Methicillin and Oxacillin Resistant; type: cell-based
Outline: as §1

[4] = test system: Enterococcus faecium EFM.384, Daptomycin resistant mutant (14-A); type: cell-based; settings: MHBc with 50 mg/L calcium, 18-20 hours at 37° C.
Outline: as §1

[5] = test system: Enterococcus faecium EFM.14 (ATCC 6569); type: cell-based
Outline: as §1

[6] = test system: Staphylococcus aureus SAU.42 (ATCC 29213); type: cell-based
Outline: as §1

[7] = test system: Staphylococcus aureus SAU.278, Daptomycin resistant mutant (D10); type: cell-based; settings: MHBc with 50 mg/L calcium, 18-20 hours at 37° C.
Outline: as §1

[8] = MHBc with 50 mg/L calcium, 18-20 hours at 37° C.

SMILES	Efs201 MIC ([1]; ATCC 49452)	Efs312 MIC [2]	Sa399 MIC ([3]; ATCC 43300)	Efm384 MIC [4]	Efm14 MIC ([5]; ATCC 6569)	Sa42 MIC ([6]; ATCC 29213)	Sa278 MIC [7]	C. diff MIC90 (Clostridium difficile)	Efs201 MIC [1, 8]	Sa399 MIC [3, 8]	Efm14 MIC [5, 8]	Sa42 MIC [6, 8]
CCCCCCCCCCC(=O)N[C@@H](Cc1c[nH]c2ccccc12)C(=O)N[C@H](CC(N)=O)C(=O)N[C@@H](CC(=O)O)C(=O)N[C@@H]1C(=O)NCC(=O)N[C@@H](CCCN)C(=O)N[C@@H](CC(=O)O)C(=O)N[C@H](C)C(=O)N[C@@H](CC(=O)O)C(=O)NCC(=O)N[C@H](CO)C(=O)N[C@@H]([C@H](C)CC(=O)O)C(=O)N[C@@H](CC(=O)c2ccccc2N)C(=O)O[C@@H]1C [Compound 2]	2 mg/L	32 mg/L	0.5 mg/L	>32 mg/L	2 mg/L	2 mg/L	8 mg/L	4 mg/L				
CCCCCCCCCCCCC(=O)N[C@@H](Cc1c[nH]c2ccccc12)C(=O)N[C@H](CC(N)=O)C(=O)N[C@@H](CC(=O)O)C(=O)N[C@@H]1C(=O)NCC(=O)N[C@@H](CCCN)C(=O)N[C@@H](CC(=O)O)C(=O)N[C@H](C)C(=O)N[C@@H](CC(=O)O)C(=O)NCC(=O)N[C@H](CO)C(=O)N[C@@H]([C@H](C)CC(=O)O)C(=O)N[C@@H](CC(=O)c2ccccc2N)C(=O)O[C@@H]1C [Compound 5]	0.5 mg/L	8 mg/L	0.5 mg/L	8 mg/L	0.5 mg/L	0.5 mg/L	2 mg/L	8 mg/L				
CCCCCCCCCCCCCC(=O)N[C@@H](Cc1c[nH]c2ccccc12)C(=O)N[C@H](CC(N)=O)C(=O)N[C@@H](CC(=O)O)C(=O)N[C@@H]1C(=O)NCC(=O)N[C@@H](CCCN)C(=O)N[C@@H](CC(=O)O)C(=O)N[C@H](C)C(=O)N[C@@H](CC(=O)O)C(=O)NCC(=O)N[C@H](CO)C(=O)N[C@@H]([C@H](C)CC(=O)O)C(=O)N[C@@H](CC(=O)c2ccccc2N)C(=O)O[C@@H]1C [Compound 6]	0.25 mg/L	4 mg/L	0.25 mg/L	4 mg/L	0.5 mg/L	1 mg/L	2 mg/L	16 mg/L				
CCCCCCCCCCCCCCC(=O)N[C@@H](Cc1c[nH]c2ccccc12)C(=O)N[C@H](CC(N)=O)C(=O)N[C@@H](CC(=O)O)C(=O)N[C@@H]1C(=O)NCC(=O)N[C@@H](CCCN)C(=O)N[C@@H](CC(=O)O)C(=O)N[C@H](C)C(=O)N[C@@H](CC(=O)O)C(=O)NCC(=O)N[C@H](CO)C(=O)N[C@@H]([C@H](C)CC(=O)O)C(=O)N[C@@H](CC(=O)c2ccccc2N)C(=O)O[C@@H]1C [Compound 7]	0.25 mg/L	4 mg/L	0.5 mg/L	4 mg/L	0.5 mg/L	1 mg/L	2 mg/L	16 mg/L				
CC(C)CCCCCCCCCC(=O)N[C@@H](Cc1c[nH]c2ccccc12)C(=O)N[C@H](CC(N)=O)C(=O)N[C@@H](CC(=O)O)C(=O)N[C@@H]1C(=O)NCC(=O)N[C@@H](CCCN)C(=O)N[C@@H](CC(=O)O)C(=O)N[C@H](C)C(=O)N[C@@H](CC(=O)O)C(=O)NCC(=O)N[C@H](CO)C(=O)N[C@@H]([C@H](C)CC(=O)O)C(=O)N[C@@H](CC(=O)c2ccccc2N)C(=O)O[C@@H]1C [Compound 10]	0.13 mg/L	>32 mg/L	0.25 mg/L	4 mg/L	1 mg/L	0.25 mg/L	1 mg/L	1 mg/L				
CC(C)CCCCCCCCCCC(=O)N[C@@H](Cc1c[nH]c2ccccc12)C(=O)N[C@H](CC(N)=O)C(=O)N[C@@H](CC(=O)O)C(=O)N[C@@H]1C(=O)NCC(=O)N[C@@H](CCCN)C(=O)N[C@@H](CC(=O)O)C(=O)N[C@H](C)C(=O)N[C@@H](CC(=O)O)C(=O)NCC(=O)N[C@H](CO)C(=O)N[C@@H]([C@H](C)CC(=O)O)C(=O)N[C@@H](CC(=O)c2ccccc2N)C(=O)O[C@@H]1C [Compound 11]	1 mg/L	16 mg/L	0.25 mg/L	4 mg/L	1 mg/L	0.125 mg/L	0.5 mg/L	1 mg/L				
CCCCCC1CCC(NC(=O)N[C@@H](Cc2c[nH]c3ccccc23)C(=O)N[C@H](CC(N)=O)C(=O)N[C@@H](CC(=O)O)C(=O)N[C@@H]2C(=O)NCC(=O)N[C@@H](CCCN)C(=O)N[C@@H](CC(=O)O)C(=O)N[C@H](C)C(=O)N[C@@H](CC(=O)O)C(=O)NCC(=O)N[C@H](CO)C(=O)N[C@@H]([C@H](C)CC(=O)O)C(=O)N[C@@H](CC(=O)c3ccccc3N)C(=O)O[C@@H]2C)CC1 (stereo partly shown) [Compound 17]		>32 mg/L		16 mg/L			0.25 mg/L	1 mg/L	1 mg/L	0.25 mg/L	1 mg/L	0.25 mg/L
CCCCCCC12CCC(C(=O)N[C@@H](Cc3c[nH]c4ccccc34)C(=O)N[C@H](CC(N)=O)C(=O)N[C@@H](CC(=O)O)C(=O)N[C@@H]3C(=O)NCC(=O)N[C@@H](CCCN)C(=O)N[C@@H](CC(=O)O)C(=O)N[C@H](C)C(=O)N[C@@H](CC(=O)O)C(=O)NCC(=O)N[C@H](CO)C(=O)N[C@@H]([C@H](C)CC(=O)O)C(=O)N[C@@H](CC(=O)c4ccccc4N)C(=O)O[C@@H]3C)(CC1)CC2 [Compound 23]	0.5 mg/L	4 mg/L	0.5 mg/L	4 mg/L	0.5 mg/L	0.50 mg/L	1 mg/L	0.5 mg/L				
C[C@H](CC(=O)O)[C@@H]1NC(=O)[C@@H](CO)NC(=O)CNC(=O)[C@H](CC(=O)O)NC(=O)[C@@H](C)NC(=O)[C@H](CC(=O)O)NC(=O)[C@H](CCCN)NC(=O)CNC(=O)[C@@H](NC(=O)[C@H](CC(=O)O)NC(=O)[C@@H](CC(N)=O)NC(=O)[C@H](Cc2c[nH]c3ccccc23)NC(=O)CCCCC2CCCCC2)[C@@H](C)OC(=O)[C@H](CC(=O)c2ccccc2N)NC1=O [Compound 24]	2 mg/L	>32 mg/L	1 mg/L	32 mg/L	4 mg/L	1 mg/L	8 mg/L	4 mg/L				
C[C@H](CC(=O)O)[C@@H]1NC(=O)[C@@H](CO)NC(=O)CNC(=O)[C@H](CC(=O)O)NC(=O)[C@@H](C)NC(=O)[C@H](CC(=O)O)NC(=O)[C@H](CCCN)NC(=O)CNC(=O)[C@@H](NC(=O)[C@H](CC(=O)O)NC(=O)[C@@H](CC(N)=O)NC(=O)[C@H](Cc2c[nH]c3ccccc23)NC(=O)CCCCCCC2CCCCC2)[C@@H](C)OC(=O)[C@H](CC(=O)c2ccccc2N)NC1=O [Compound 25]	0.5 mg/L	16 mg/L	0.5 mg/L	8 mg/L	1 mg/L	0.5 mg/L	1 mg/L	1 mg/L				
C[C@H](CC(=O)O)[C@@H]1NC(=O)[C@@H](CO)NC(=O)CNC(=O)[C@H](CC(=O)O)NC(=O)[C@@H](C)NC(=O)[C@H](CC(=O)O)NC(=O)[C@H](CCCN)NC(=O)CNC(=O)[C@@H](NC(=O)[C@H](CC(=O)O)NC(=O)[C@@H](CC(N)=O)NC(=O)[C@H](Cc2c[nH]c3ccccc23)NC(=O)CCCCCC2CCCCC2)[C@@H](C)OC(=O)[C@H](CC(=O)c2ccccc2N)NC1=O [Compound 26]	1 mg/L	>32 mg/L	0.5 mg/L	16 mg/L	2 mg/L	1 mg/L	2 mg/L	2 mg/L				
